Results published in ChEMBL document CHEMBL2440076, “New triarylpyrazoles as broad-spectrum anticancer agents: design, synthesis, and biological evaluation” (Eur J Med Chem, 2013).

Experiments:
CAKI-1 = assay: Growth inhibition of human CAKI-1 cells after 48 hrs by sulforhodamine B assay; assay type: functional; conditions: CAKI-1, 48 h; for CC50: read-out: LC50 (the source's name)
K562 = assay: Growth inhibition of human K562 cells after 48 hrs by sulforhodamine B assay; assay type: functional; conditions: K562, 48 h; for CC50: read-out: LC50 (the source's name)
HCT-15 = assay: Growth inhibition of human HCT15 cells after 48 hrs by sulforhodamine B assay; assay type: functional; conditions: HCT-15, 48 h
UO-31 = assay: Growth inhibition of human UO31 cells assessed as cell growth at 10 uM after 48 hrs by sulforhodamine B assay; assay type: functional; conditions: UO-31, 48 h, read-out: Activity
MCF7 = assay: Growth inhibition of human MCF7 cells assessed as cell growth at 10 uM after 48 hrs by sulforhodamine B assay; assay type: functional; conditions: MCF7, 48 h, read-out: Activity
IGROV-1 = assay: Growth inhibition of human IGROV1 cells assessed as cell growth at 10 uM after 48 hrs by sulforhodamine B assay; assay type: functional; conditions: IGROV-1, 48 h, read-out: Activity
HL-60(TB) = assay: Growth inhibition of human HL-60(TB) cells assessed as cell growth at 10 uM after 48 hrs by sulforhodamine B assay; assay type: functional; conditions: HL-60, 48 h, read-out: Activity
NCI-H522 = assay: Growth inhibition of human NCI-H522 cells assessed as cell growth at 10 uM after 48 hrs by sulforhodamine B assay; assay type: functional; conditions: NCI-H522, 48 h, read-out: Activity
SNB-75 = assay: Growth inhibition of human SNB75 cells after 48 hrs by sulforhodamine B assay; assay type: functional; conditions: SNB-75, 48 h
TK-10 = assay: Growth inhibition of human TK10 cells after 48 hrs by sulforhodamine B assay; assay type: functional; conditions: TK-10, 48 h; for CC50: read-out: LC50 (the source's name)
OVCAR-4 = assay: Growth inhibition of human OVCAR4 cells assessed as cell growth at 10 uM after 48 hrs by sulforhodamine B assay; assay type: functional; conditions: OVCAR-4, 48 h, read-out: Activity
SW-620 [1] = assay: Growth inhibition of human SW620 cells after 48 hrs by sulforhodamine B assay; assay type: functional; conditions: SW-620, 48 h; for CC50: read-out: LC50 (the source's name)
[2] = Growth inhibition of human NCI-ADR-RES cells after 48 hrs by sulforhodamine B assay; assay type: functional; conditions: for CC50: read-out: LC50 (the source's name)
SK-MEL-28 = assay: Growth inhibition of human SK-MEL-28 cells assessed as cell growth at 10 uM after 48 hrs by sulforhodamine B assay; assay type: functional; conditions: SK-MEL-28, 48 h, read-out: Activity
UACC-62 = assay: Growth inhibition of human UACC62 cells assessed as cell growth at 10 uM after 48 hrs by sulforhodamine B assay; assay type: functional; conditions: UACC-62, 48 h, read-out: Activity
MDA-MB-231 = assay: Growth inhibition of human MDA-MB-231 cells after 48 hrs by sulforhodamine B assay; assay type: functional; conditions: MDA-MB-231, 48 h
OVCAR-3 [3] = assay: Growth inhibition of human OVCAR3 cells after 48 hrs by sulforhodamine B assay; assay type: functional, cell-based; conditions: OVCAR-3, 48 h; for CC50: read-out: LC50 (the source's name)
[4] = Growth inhibition of human Hs 578T cells after 48 hrs by sulforhodamine B assay; assay type: functional; conditions: for CC50: read-out: LC50 (the source's name)
Malme-3M = assay: Growth inhibition of human MALME-3M cells after 48 hrs by sulforhodamine B assay; assay type: functional
SK-OV-3 = assay: Growth inhibition of human SKOV3 cells assessed as cell growth at 10 uM after 48 hrs by sulforhodamine B assay; assay type: functional; conditions: SK-OV-3, 48 h, read-out: Activity
RPMI-8226 = assay: Growth inhibition of human RPMI8226 cells after 48 hrs by sulforhodamine B assay; assay type: functional, cell-based; conditions: RPMI-8226, 48 h; for CC50: read-out: LC50 (the source's name)
SNB-19 = assay: Growth inhibition of human SNB19 cells assessed as cell growth at 10 uM after 48 hrs by sulforhodamine B assay; assay type: functional; conditions: SNB-19, 48 h, read-out: Activity
SW-620 [5] = assay: Growth inhibition of human SW620 cells assessed as cell growth at 10 uM after 48 hrs by sulforhodamine B assay; assay type: functional; conditions: SW-620, 48 h, read-out: Activity
HOP-92 [6] = assay: Growth inhibition of human HOP92 cells assessed as cell growth at 10 uM after 48 hrs by sulforhodamine B assay; assay type: functional; conditions: HOP-92, 48 h, read-out: Activity
OVCAR-3 [7] = assay: Growth inhibition of human OVCAR3 cells assessed as cell growth at 10 uM after 48 hrs by sulforhodamine B assay; assay type: functional; conditions: OVCAR-3, 48 h, read-out: Activity
A549 = assay: Growth inhibition of human A549/ATCC cells after 48 hrs by sulforhodamine B assay; assay type: functional; conditions: A549, 48 h
SF-539 = assay: Growth inhibition of human SF539 cells assessed as cell growth at 10 uM after 48 hrs by sulforhodamine B assay; assay type: functional; conditions: SF-539, 48 h, read-out: Activity
T47D = assay: Growth inhibition of human T47D cells after 48 hrs by sulforhodamine B assay; assay type: functional; conditions: for CC50: read-out: LC50 (the source's name)
HOP-92 [8] = assay: Growth inhibition of human HOP92 cells after 48 hrs by sulforhodamine B assay; assay type: functional, cell-based; conditions: HOP-92, 48 h
A498 = assay: Growth inhibition of human A498 cells after 48 hrs by sulforhodamine B assay; assay type: functional, cell-based; conditions: A498, 48 h; for CC50: read-out: LC50 (the source's name)
ACHN = assay: Growth inhibition of human ACHN cells assessed as cell growth at 10 uM after 48 hrs by sulforhodamine B assay; assay type: functional; conditions: read-out: Activity
NCI-H460 = assay: Growth inhibition of human NCI-H460 cells after 48 hrs by sulforhodamine B assay; assay type: functional; conditions: NCI-H460, 48 h
[9] = Growth inhibition of human NCI-ADR-RES cells assessed as cell growth at 10 uM after 48 hrs by sulforhodamine B assay; assay type: functional; conditions: read-out: Activity
[10] = Growth inhibition of human HCC2998 cells after 48 hrs by sulforhodamine B assay; assay type: functional; conditions: HCC 2998, 48 h; for CC50: read-out: LC50 (the source's name)

## COc1cc(-c2nn(-c3cccc(NC(=O)Nc4cc(C(F)(F)F)cc(C(F)(F)F)c4)c3)cc2-c2ccncc2)ccc1Cl
CAKI-1
  GI50: 993 nM
  TGI: 3140 nM
  CC50: 49300 nM
K562
  GI50: 363 nM
  TGI: 3250 nM
  CC50: > 50000 nM
HCT-15
  GI50: 617 nM
  LC50: 4330 nM
  TGI: 1640 nM
UO-31
  growth at 10 µM: -29.2%
MCF7
  growth at 10 µM: 1.74%
IGROV-1
  growth at 10 µM: 19.9%
HL-60(TB)
  growth at 10 µM: -20.2%
NCI-H522
  growth at 10 µM: -34.4%
SNB-75
  GI50: 858 nM
  LC50 (lethal concentration, 50% net cell kill): 5310 nM
  TGI: 2070 nM
TK-10
  GI50: 894 nM
  TGI: 2480 nM
  CC50: 10100 nM
OVCAR-4
  growth at 10 µM: 17.2%
SW-620 [1]
  GI50: 715 nM
  TGI: 1860 nM
  CC50: 4870 nM
[2]
  GI50: 1010 nM
  TGI: 5180 nM
  CC50: > 50000 nM
SK-MEL-28
  growth at 10 µM: -28.9%
UACC-62
  growth at 10 µM: -55.9%
MDA-MB-231
  GI50: 664 nM
  LC50: 3000 nM
  TGI: 1410 nM
OVCAR-3 [3]
  GI50: 411 nM
  IC50: 410 nM
  TGI: 1230 nM
  CC50: 3390 nM
[4]
  GI50: 1040 nM
  TGI: 3680 nM
  CC50: > 50000 nM
Malme-3M
  GI50: 892 nM
  LC50 (concentration killing 50% of starting cells): 7680 nM
  TGI: 2170 nM
SK-OV-3
  growth at 10 µM: -9.79%
RPMI-8226
  GI50: 307 nM
  IC50: 310 nM
  TGI: > 50000 nM
  CC50: > 50000 nM
SNB-19
  growth at 10 µM: 6.55%
SW-620 [5]
  growth at 10 µM: -2.89%
HOP-92 [6]
  growth at 10 µM: -50.2%
OVCAR-3 [7]
  growth at 10 µM: -57.9%
A549
  GI50: 527 nM
  LC50 (concentration killing 50% of starting cells): 18000 nM
  TGI: 2130 nM
SF-539
  growth at 10 µM: -53.5%
T47D
  GI50: 1550 nM
  TGI: > 50000 nM
  CC50: > 50000 nM
HOP-92 [8]
  GI50: 144 nM
  IC50: 140 nM
  LC50: 4720 nM
  TGI: 1150 nM
A498
  GI50: 612 nM
  IC50: 610 nM
  TGI: 1900 nM
  CC50: 7140 nM
ACHN
  growth at 10 µM: 10.6%
NCI-H460
  GI50: 558 nM
  LC50: 16300 nM
  TGI: 1870 nM
[9]
  growth at 10 µM: 1.11%
[10]
  GI50: 931 nM
  TGI: 1870 nM
  CC50: 3760 nM

## COc1cc(-c2nn(-c3cccc(NC(=O)c4ccc(Cl)c(C(F)(F)F)c4)c3)cc2-c2ccncc2)ccc1Cl
CAKI-1
  GI50: 2300 nM
  TGI: > 32500 nM
  CC50: > 32500 nM
K562
  GI50: 1610 nM
  TGI: > 32500 nM
  CC50: > 32500 nM
HCT-15
  GI50: 3250 nM
  LC50: > 32500 nM
  TGI: > 32500 nM
UO-31
  growth at 10 µM: 37.1%
MCF7
  growth at 10 µM: 37.6%
IGROV-1
  growth at 10 µM: 48.9%
HL-60(TB)
  growth at 10 µM: 3.23%
NCI-H522
  growth at 10 µM: 1.5%
SNB-75
  GI50: 2190 nM
  LC50 (lethal concentration, 50% net cell kill): > 32500 nM
  TGI: 29200 nM
TK-10
  GI50: 20400 nM
  TGI: > 32500 nM
  CC50: > 32500 nM
OVCAR-4
  growth at 10 µM: 66%
SW-620 [1]
  GI50: 4750 nM
  TGI: > 32500 nM
  CC50: > 32500 nM
[2]
  GI50: 1290 nM
  TGI: 11200 nM
  CC50: > 32500 nM
SK-MEL-28
  growth at 10 µM: 41.6%
UACC-62
  growth at 10 µM: 32.8%
MDA-MB-231
  GI50: 1200 nM
  LC50: > 32500 nM
  TGI: > 32500 nM
OVCAR-3 [3]
  GI50: 2420 nM
  IC50: 2420 nM
  TGI: 19800 nM
  CC50: > 32500 nM
[4]
  GI50: 2170 nM
  TGI: > 32500 nM
  CC50: > 32500 nM
Malme-3M
  GI50: 1180 nM
  LC50 (concentration killing 50% of starting cells): > 32500 nM
  TGI: 19700 nM
SK-OV-3
  growth at 10 µM: 64.3%
RPMI-8226
  GI50: 1620 nM
  IC50: 1620 nM
  TGI: > 32500 nM
  CC50: > 32500 nM
SNB-19
  growth at 10 µM: 66%
SW-620 [5]
  growth at 10 µM: 36.1%
HOP-92 [6]
  growth at 10 µM: 22.5%
OVCAR-3 [7]
  growth at 10 µM: 19.5%
A549
  GI50: 2400 nM
  LC50 (concentration killing 50% of starting cells): > 32500 nM
  TGI: > 32500 nM
SF-539
  growth at 10 µM: 33%
T47D
  GI50: 2050 nM
  TGI: > 32500 nM
  CC50: > 32500 nM
HOP-92 [8]
  GI50: 665 nM
  IC50: 670 nM
  LC50: > 32500 nM
  TGI: 3230 nM
A498
  GI50: 2700 nM
  IC50: 2700 nM
  TGI: 22700 nM
  CC50: > 32500 nM
ACHN
  growth at 10 µM: 39.1%
NCI-H460
  GI50: 3470 nM
  LC50: > 32500 nM
  TGI: > 32500 nM
[9]
  growth at 10 µM: 13.4%
[10]
  GI50: 7860 nM
  TGI: > 32500 nM
  CC50: > 32500 nM
